The values below come from patent US9580430B2, “9H-pyrimido[4,5-B]indoles and related analogs as BET bromodomain inhibitors” (THE REGENTS OF THE UNIVERSITY OF MICHIGAN, priority 2014, dated 2017).

The test system of assay [1] is MDA-MB-436. Kind of assay: Cell growth inhibition, MDA-MB-436 breast cancer cells (WST-8). The assay is classed as cell-based. As to conditions: Homo sapiens, MDA-MB-436, 96 h; 4 days; read-out: IC50 (nM) MDA-MB-436 Cell Line (WST assay). The protocol: All the breast cancer cell lines were obtained from the ATCC. Cell viability was determined using the WST-8 (2-(2-methoxy-4-nitrophenyl)-3-(4-nitrophenyl)-5-(2,4-disulfophenyl)-2H-tetrazolium, monosodium salt) based Cell Counting-8 Kit (Dojindo Molecular Technologies, Inc., Rockville, Md.) according to the manufacture's instruction. […] The absorbance was measured at 450 nm using a SPECTRAmax PLUS plate reader (Molecular Devices, Sunnyvale, Calif.). The IC50 was calculated using the GraphPad Prism 5 software.
Background: Tetrazolium dyes change colour on reduction, which living cells bring about.

Assay [2] concerns the target T1, recombinant BRD4 BD1 (Homo sapiens, UniProt O60885).
T1 construct: for recombinant BRD4 BD1 and BRD4 BD2 proteins
The assay is described as follows: Competitive fluorescence-polarization (FP) binding assay, BRD4 BD1. Also: probe 1.5 nM. To be noted: competitive FP assay; protein 10 nM, probe […]; read-out: IC50 (nM) BRD4 BD1. The procedure: (§1) Fluorescence Polarization (FP) competitive binding studies were carried out using a FAM labeled fluorescent probe (ZBA248 or BRD-1F) to determine binding affinities of representative Compounds of the Disclosure for recombinant BRD4 BD1 and BRD4 BD2 proteins. For example, equilibrium dissociation constants (Kd) values of ZBA248 to these […] proteins were determined from protein saturation experiments by monitoring the total fluorescence polarization of mixtures composed with the fluorescent probe at a fixed concentration and proteins with increasing concentrations up to full saturation. Serial dilutions of testing protein were mixed with ZBA248 to a final volume of 200 μl in the assay buffer. […] Plates were incubated at room temperature for 30 minutes with gentle shaking to assure equilibrium. […] Kd values of ZBA248 were calculated by fitting the sigmoidal dose-dependent FP increases as a function of protein concentrations using Graphpad Prism 6.0 software (Graphpad Software, San Diego, Calif.).
(§2) The IC50 and Ki values of representative Compounds of the Disclosure were determined in a competitive binding experiment as described above. Mixtures of 10 μl of the tested compounds in assay buffer with 40% Ethylene Glycol and 190 μl of preincubated protein/probe complex solution in the assay buffer (100 mM potassium phosphate, pH 6.5, 0.01% Triton X-100) were added into assay plates which were incubated at room temperature for 30 minutes with gentle shaking. Final concentrations of proteins were 10 and 6 nM in assays for BD1 and BD2 of BRD4, respectively. […] FP values were measured as described above. IC50 values were determined by nonlinear regression fitting of the competition curves.

Assay [3] deals with MOLM-13. The assay is described as follows: Cell growth inhibition, MOLM-13 leukemia cells (CellTiter-Glo). It counts as cell-based. To be noted: Homo sapiens, MOLM-13, 96 h; 4 days; read-out: IC50 (nM) MOLM-13 Cell Line (CellTiter-Glo assay). The procedure: Cell growth inhibitory activity of representative Compounds of the Disclosure was determined using CellTiter-Glo® Luminescent Cell Viability Assay. […] Cell viability was determined using the CellTiter-Glo® Luminescent Cell Viability Assay Kit (Promega, Madison, Wis.) according to the manufacture's instruction. Briefly, a volume of CellTiter-Glo® Reagent equal to the volume of cell culture medium was added to each well, and then the plates were incubated at room temperature for 10-20 minutes. The luminescent signal was measured using a Tecan Infinite M1000 multimode microplate reader (Tecan, Morrisville, N.C.). The half maximal inhibitory concentration (IC50) was calculated using the GraphPad Prism 5 software (GraphPad Software, La Jolla, Calif.).
Background: ATP-based viability assays read luminescence as a measure of living cells.

Assay [4] addresses T2, recombinant BRD4 BD2 (Homo sapiens, UniProt O60885).
T2 construct: for recombinant BRD4 BD1 and BRD4 BD2 proteins
Kind of assay: Competitive fluorescence-polarization (FP) binding assay, BRD4 BD2. Also: probe 1.5 nM. As to conditions: competitive FP assay; protein 6 nM, probe […]; read-out: IC50 (nM) BRD4 BD2. The protocol:
as §1, §2

The term IC50 denotes the concentration at which inhibition is half-maximal. For the molecule `COc1cc2c(cc1-c1c(C)noc1C)[nH]c1nc(C)nc(Nc3cccc4ncccc34)c12` [Cpd. No. 211, 7-(3,5-dimethylisoxazol-4-yl)-6-methoxy-2-methyl-N-(quinolin-5-yl)-9H-pyrimido[4,5-b]indol-4-amine], the half-inhibitory concentration (IC50) was determined as 57 nM in assay [1], 16 nM in assay [2], 76 nM in assay [3] and 17 nM in assay [4].

Regarding `COc1cc2c(cc1-c1c(C)noc1C)[nH]c1nc(C)nc(Nc3c(C)nn(C)c3C)c12` [Cpd. No. 35, 7-(3,5-dimethylisoxazol-4-yl)-6-methoxy-2-methyl-N-(1,3,5-trimethyl-1H-pyrazol-4-yl)-9H-pyrimido[4,5-b]indol-4-amine], the IC50 in assay [1] turned out to be 88.9 nM; in assay [2], 20.4 nM; in assay [3], 38.9 nM; in assay [4], 42.9 nM.

For the molecule `COc1cc2c(cc1-c1c(C)noc1C)[nH]c1nc(C)nc(Nc3ncnn3C(C)C)c12` [Cpd. No. 29, 7-(3,5-dimethylisoxazol-4-yl)-N-(1-isopropyl-1H-1,2,4-triazol-5-yl)-6-methoxy-2-methyl-9H-pyrimido[4,5-b]indol-4-amine], the IC50 in assay [1] is 1110 nM; in assay [2], above 1000 nM; in assay [3] it was 82.1 nM; in assay [4], above 1000 nM.

As for `COc1cc2c(cc1-c1c(C)noc1C)[nH]c1nc(C)nc(Nc3nn(C)cc3C(C)C)c12` [compound 78, 7-(3,5-dimethylisoxazol-4-yl)-N-(4-isopropyl-1-methyl-1H-pyrazol-3-yl)-6-methoxy-2-methyl-9H-pyrimido[4,5-b] indol-4-amine], the IC50 was determined as 271 nM in assay [1], 16 nM in assay [2], 97.4 nM in assay [3] and 63.5 nM in assay [4].

In the case of `COc1cc2c(cc1-c1c(C)noc1C)[nH]c1nc(C)nc(Nc3cc(C)ccn3)c12` [Cpd. No. 110, 7-(3,5-dimethylisoxazol-4-yl)-6-methoxy-2-methyl-N-(4-methylpyridin-2-yl)-9H-pyrimido[4,5-b]indol-4-amine], the IC50 in assay [1] came out at 354 nM; in assay [2], 73 nM; in assay [3] it was 16 nM; in assay [4], 33 nM.

Take `COc1cc2c(cc1-c1c(C)noc1C)[nH]c1nc(C)nc(Oc3ccnc4ccccc34)c12` [Cpd. No. 104, 4-(6-methoxy-2-methyl-4-(quinolin-4-yloxy)-9H-pyrimido[4,5-b]indol-7-yl)-3,5-dimethylisoxazole]: the concentration for half-maximal inhibition (IC50) in assay [1] is 3.4 nM; in assay [2] it was above 1000 nM; in assay [3] it was 603 nM; in assay [4], 810 nM.

In the case of `CCc1nn(C)c(Nc2nc(C)nc3[nH]c4cc(-c5c(C)noc5C)c(OC)cc4c23)c1C` [Cpd. No. 169, 7-(3,5-dimethylisoxazol-4-yl)-N-(3-ethyl-1,4-dimethyl-1H-pyrazol-5-yl)-6-methoxy-2-methyl-9H-pyrimido[4,5-b]indol-4-amine], the concentration for half-maximal inhibition (IC50) in assay [1] stood at 93.9 nM; in assay [2] it was 14.3 nM; in assay [3], 63.3 nM; in assay [4], 23 nM.

For `COc1cc2c(cc1-c1c(C)noc1C)[nH]c1nc(C)nc(Sc3nnc(C)n3C(C)C)c12` [Cpd. No. 3, 4-(4-((4-Isopropyl-5-methyl-4H-1,2,4-triazol-3-yl)thio)-6-methoxy-2-methyl-9H-pyrimido[4,5-b]indol-7-yl)-3,5-dimethylisoxazole], the IC50 was 386 nM in assay [1], 540 nM in assay [2], 38.4 nM in assay [3] and 183 nM in assay [4].

For `COc1cc2c(cc1-c1c(C)noc1C)[nH]c1nc(C)nc(Nc3cc(C)nn3-c3ccccc3)c12` [Cpd. No. 1, 7-(3,5-Dimethylisoxazol-4-yl)-6-methoxy-2-methyl-N-(3-methyl-1-phenyl-1H-pyrazol-5-yl)-9H-pyrimido[4,5-b]indol-4-amine], the 50% inhibitory concentration (IC50) in assay [1] turned out to be 148 nM; in assay [3] it was 29.8 nM; in assay [4], 21.8 nM.
